Assay results taken from patent publication US6642215B2 (Leo Pharma A/S, priority 2001, dated 2003).
Like-named read-outs stand apart in the source and are kept apart here.

What was measured:
NYH SCLC cells = experiment: DNA synthesis (tritiated thymidine incorporation) in NYH SCLC cells; assay type: cell-based
Method: (§1) DNA synthesis: NYH SCLC, HT-1080, Colo-320, PC-3 and H460 cells (7.5×10^3 cells/ml) were seeded in tissue culture vessels and the test compound were added 2 h after plating. Following an incubation for 144 h tritiated thymidine (5 CI/mmol, Amersham Pharmacia Biotech) was added to the culture at the concentration of 1 μCi/ml, and the cells were incubated for additional 4 h. The incorporated thymidine was measured with a β-counter. Each compound concentration was tested in triplicate.

Colo-320 cells = experiment: DNA synthesis (tritiated thymidine incorporation) in Colo-320 cells; assay type: cell-based; conditions: Homo sapiens, 144 h incubation, mean ± SD of two to four experiments
Method: as §1

PC-3 cells = experiment: DNA synthesis (tritiated thymidine incorporation) in PC-3 cells; assay type: cell-based; conditions: Homo sapiens, 144 h incubation, mean ± SD of two to four experiments
Method: as §1

NF-κB [1] = experiment: NF-κB-dependent luciferase assay in Colo-320 cells, TNF-α stimulation; assay type: cell-based, human; conditions: Homo sapiens, compound 24 h before TNF-α 50 ng/ml 6 h, mean ± SD
Method: (§2) The NF-κB-luciferase reporter plasmid (pBIIX) and pRL-TK control vector described in Example 1 were used for the luciferase assay,
The Colo-320 cells were seeded with a density of 5×10^4 cells/cm^2 in 6-well plates (NUNC). The following day, the cells were co-transfected with construct DNA and pRL-TK using FuGene Transfection Reagent (Boehringer Mannheim). A mixture of 5 μl Fugene and 95 μl serum free medium (per well) was prepared and incubated for 5 min at room temperature. Then, the mixture was transferred to a mixture of construct DNA (2.5 μg per well) and pRL-TK vector (0.25 μg per well), gently mixed, incubated for 15 min at room temperature and added to the cells. The cells were treated at 37° C. with compound A (10^−12−10^−5 M) or DMSO for 24 h before stimulation with TNF-α (50 ng/ml) for 6 h.
(§3) The cell lysate was assayed for luciferase activity using the Dual luciferase kit as described by the manufacturer (Promega). All transfections were performed in triplicate. Firefly luciferase activity was corrected for differences in transfection efficiency by normalizing it to the measured Renilla luciferase activity.
(§4) NF-κB activity was measured by the luciferase assay described in Example 1.

NF-κB [2] = experiment: NF-κB-dependent luciferase assay in PC-3 cells, TNF-α stimulation; assay type: cell-based, human; conditions: compound 24 h before TNF-α 50 ng/ml 6 h
Method: as §2
The PC-3 cells were seeded at a density of 3×10^4 cells/cm^2 in 6 well-plates. The following day, the cells were co-transfected with construct DNA and pRL-TK vector using DOTAP liposomal transfection reagent (Boehringer Mannheim). The construct DNA (4.0 μg per well), the pRL-TK vector (1.0 μg per well), DOTAP (16.7 μl per well) and dH2O (total volume 100 μl per well) were carefully mixed and incubated for 15 min at 37° C. A growth medium without serum (900 μl per well) was added and the transfection mixture (1 ml per well) was added to the cells. After 4 h at 37° C., a growth medium with 20% FBS (1 ml per well) was added. The cells were treated at 37° C. with compound A (10^−12−10^−5 M) or DMSO for 24 h before stimulation with TNF-α (50 ng/ml) for 6 h.
as §3, §4

NYH Xenografts = experiment: NYH xenografts in nude mice, tumour growth; assay type: in vivo, NMRI nu/nu mice
Method: (§5) All of the animal experiments were conducted according to the guidelines and ethical standards of the Danish Committee for Animal Experiments. Female NMRI nu/nu mice 6 weeks of age were purchased from M&B (Ry, Denmark). The mice were allowed an acclimatisation period of 1-3 weeks before start of the experiments. The nude mice were housed in Scantainers under semi-sterile conditions and all handling of mice was performed in a laminar flow bench.
NYH Xenografts. NMRI nu/nu mice were injected with 1×10^7 cells in 0.2 ml media s.c. in both flanks and tumour growth was measured twice weekly. The tumour area was used as expression of the tumour size and was calculated from two perpendicular diameters measured with a digital caliper. Compound A was given for fourteen consecutive days by oral gavage from day 4-6 when the tumour size was 24-30 mm^2. Each treatment group consisted of 10 mice.
(§6) Statistical Methods In the animal models, tumour sizes were expressed by the mean of the trends in each treatment group. The trend is the linear increment or tumour size, where tumour size is the square root of the (mean) area of the tumour(s). Comparison with controls was expressed as T/C % and calculated as follows:
A=(overall mean tumour size at baseline+mean trend of treatment*intended days of treatment)
B=(overall mean tumour size at baseline+mean trend of control*intended days of treatment)
Overall mean tumour size at baseline=pooling all treatments this is the mean of all baseline values. For each mouse the baseline value is calculated as the square root of the (mean) area of the tumour(s).
Significance was tested with the Bonferroni correction. This correction is a method for adjusting (lowering) the significance level so the overall finding of one significant difference due to chance is around 5 percent.

HT 1080 Xenografts = experiment: HT 1080 xenografts in nude mice, tumour growth; assay type: in vivo, NMRI nu/nu mice; conditions: HT-1080 xenograft, 50 mg/kg, oral gavage
Method: as §5
HT 1080 Xenografts. NMRI nu/nu mice were injected with 2×10^6 cells in 0.2 ml media s.c. in each flank and tumour size was measured as described for the NYH model. Compound A was given for fourteen days by oral gavage from day 4 when the tumour size was 22-24 mm^2. Each treatment group consisted of 10 mice.
as §6
(§7) A=(overall mean tumour size at baseline+mean trend of treatment*intended days of treatment) […]
(§8) Overall mean tumour size at baseline=pooling all treatments this is the mean of all baseline values. For each mouse the baseline value is calculated as the square root of the (mean) area of the tumour(s). […]

Colo-320 DM = Colo-320 DM xenografts in nude mice, tumour growth; assay type: in vivo, NMRI nu/nu mice; conditions: Colo-320 xenograft, 50 mg/kg, oral gavage
Method: as §5
Colo-320 DM, NMRI nu/nu mice were injected with 5×10^6 cells in 0.2 ml media s.c. in each flank and tumour size was measured as mentioned above. Compound A was given for three weeks by oral gavage from day 8 when the tumour size was about 20 mm^2. Each treatment group consisted of 10 mice.
as §6, §7, §8

PC-3 Xenografts = experiment: PC-3 xenografts in nude mice, tumour growth; assay type: in vivo, NMRI nu/nu mice; conditions: PC-3 xenograft, 50 mg/kg, oral gavage
Method: as §5
PC-3 Xenografts. NMRI nu/nu mice were injected with 1×10^6 cells in 0.2 ml media s.c. in each flank and tumour size was measured as mentioned above. Compound A was given for four weeks by oral gavage from day 14 when the tumour size was about 12 mm^2. Each treatment group consisted of 10 mice.
as §6, §7, §8

Q: `N#CNC(=Nc1ccncc1)NCCCCCCOc1ccc(Cl)cc1` [compound A, N-(6-(4-chlorophenoxy)hexyl)-N′-cyano-N″-(4-pyridyl)guanidine] was tested. Which IC50 (NYH SCLC cells; NYH SCLC cells, 144 h incubation, mean ± SD of two to four experiments, read-out: DNA synthesis (IC50 nM)) did it give?
A: The IC50 was 0.64 ± 0.06 nM.

Q: What about the IC50 (NYH SCLC cells; incorporation of tritiated thymidine in NYH SCLC cells, read-out: NYH proliferation in vitro (IC50 nM)) of the same compound?
A: The IC50 was 0.64 ± 0.06 nM.

Q: And the IC50 (Colo-320 cells)?
A: Its IC50 is 5.4 ± 0.1 nM.

Q: And the IC50 (PC-3 cells)?
A: Its IC50 is 5.6 ± 0.3 nM.

Q: And the IC50 (NF-κB [1])?
A: The IC50 was 84 ± 33 nM.

Q: What about the “NF-κB activity (IC50 nM)” value (NF-κB [2]) of the same compound?
A: Its value is “no inhibition”.

Q: What about the “In vivo xenografts in nude mice T/C (%)” value (NYH Xenografts; NYH SCLC xenograft, 50 mg/kg, oral gavage) of the same compound?
A: Its value is −100%.

Q: What about the “NYH tumor growth in vivo (T/C in %)” value (NYH Xenografts; nude mice with NYH SCLC tumours, 14 days of treatment with 20 mg/kg) of the same compound?
A: The value was −44%.

Q: And the “In vivo xenografts in nude mice T/C (%)” value (HT 1080 Xenografts)?
A: The value was −77%.

Q: And the “In vivo xenografts in nude mice T/C (%)” value (Colo-320 DM)?
A: Its value is −50%.

Q: And the “In vivo xenografts in nude mice T/C (%)” value (PC-3 Xenografts)?
A: Its value is −5%.
